Data taken from US20230293519A1, “INTEGRIN INHIBITORS AND USES THEREOF IN COMBINATION WITH OTHER AGENTS” (Pliant Therapeutics, Inc., priority 2021, published 2023).
Entries after “also recorded” stand apart in the source; their conditions may differ.

Columns and labels:
[1] = Unbound plasma concentration in the PET/CT study; type: in vivo; conditions: human
Procedure: This Example was conducted as an open-label, single-dose (60 mg, 120 mg, 240 mg or 320 mg) clinical trial evaluating αvβ6 receptor occupancy in the lungs, safety, and pharmacokinetics of Compound #5 in subjects with IPF. To date, 4 participants have completed the study. Each of these 4 participants was undergoing a pre-existing course of therapy using one of the SoC (Standard of Care) compounds, nintedanib. These participants continued their pre-existing nintedanib therapy throughout this study. Knottin tracer uptake kinetics were compared pre- and post-dose of the disclosed compound, as measured by standardized uptake values (SUVs) and parameters estimated from kinetic modeling in regions-of-interest on dynamic [^18F]FP-R01-MG-F2 PET/CT scans. […] Receptor occupancy was estimated from the output of the two-compartment model (VT, the […]) using standard equations and fitting algorithms, and corrections for VND (non-displaceable tracer binding). For example, in FIG. 10, the data points, shown as circles, are modeled by the following formula: […]
FIG. 9 is a graph of unbound plasma concentration (X-axis) vs Vt (Y-axis) for the baseline Vt at each dose, the measured Vt after each dose, and a fit line. FIG. 10 is a graph of unbound plasma concentration (X-axis) vs % receptor occupancy (Y-axis). FIG. 11 is a bar chart showing % target engagement for each subject and dose.

SMAD3 phosphorylation [2] = assay: pSMAD3/SMAD3 in lung tissue and BALF of healthy mice; type: in vivo, mouse; conditions: 4 days of treatment, dose dependent
[3] = Phase 2a trial in IPF: pharmacokinetics; type: in vivo, human; conditions: IPF participants
Description: Based on sparse sampling, overall Compound 5 pharmacokinetics and % unbound in IPF were consistent with that of previous studies. […] Overall % unbound was ~0.3 to 0.5%. Full PK curve will be predicted using population PK model to project AUC0_24 and Cmax.

[4] = tested on: patients with idiopathic pulmonary fibrosis (IPF); assay: Phase 2a trial in IPF: safety and tolerability
Description: Approximately 80% of the enrolled patients were on standard of care and were equally distributed between nintedanib and pirfenidone.

[5] = tested on: bleomycin-treated mice (C57BL/6); assay: Murine bleomycin model: collagen deposition; type: in vivo, mouse
Procedure: (§1) Mice (C57BL/6) were divided into healthy (n=15), vehicle-treated (n=15), and test article-treated (n=15 per dose) groups. Mice in the vehicle and test article-treated groups were administered 3 U/kg of bleomycin (Teva Pharmaceuticals; North Wales, PA) via oropharyngeal aspiration while under anesthesia on day 0. Healthy animals were administered water in a similar fashion. Starting on day 7, mice in the control group were administered PBS vehicle, 130 uL, by oral gavage, BID for 14 days. Also starting on day 7, mice in the test group were administered compound 5 in PBS by oral gavage, BID for 14 days, at relative dosages of 1x, 2.5x and 5x. […] From day 14 through day 21, 9 of the 15 mice were administered ^2H2O for labeling. All mice were sacrificed on day 21 and tissues were collected. Samples were prepared for analysis either directly from lung tissue, or by bronchoalveolar lavage, which washes out the bronchiolar and alveolar space with saline to produce a bronchoalveolar lavage fluid (BALF) in which 80-90% of cells are alveolar macrophages.
FIG. 4C is a graph showing that compared to the healthy mice, lung tissue in the vehicle-treated mice experienced a substantial increase in SMAD3 phosphorylation, which is a measure of TGF-β signaling-related kinase activity. […] FIG. 4D is a graph showing that compared to the healthy mice, lung tissue in the vehicle-treated mice experienced a substantial accumulation of new collagen as evidenced by the percentage of lung collagen containing ^2H-labeled hydroxyproline.
FIGS. 4F, 4G, and 4H show high resolution second harmonic generation images of fibrillar collagen (collagen type I and III) taken from formalin-fixed paraffin embedded lung tissue sections from a healthy mouse lung (4F), a vehicle-treated mouse lung (4G) and a test-article treated mouse lung (4H; 500 mg/kg BID). Color scale is indicative of collagen fiber density (red = most dense; blue = least dense).
FIG. 4I is a graph showing the percent total collagen area in the second harmonic generation mouse lung images. […]

SMAD3 phosphorylation [6] = assay: Murine bleomycin model: SMAD3 phosphorylation; type: in vivo, mouse; conditions: bleomycin mice
Procedure: as §1
FIG. 4C is a graph showing that compared to the healthy mice, lung tissue in the vehicle-treated mice experienced a substantial increase in SMAD3 phosphorylation, which is a measure of TGF-β signaling-related kinase activity. […]

pSmad2/Smad2 = assay: Alveolar pSmad2/Smad2 in BAL, prior study (80 mg and 160 mg QD); type: in vivo; conditions: p<0.0001
Description: FIG. 12 through FIG. 36 illustrate various results from the clinical trial. […] BAL - bronchoalveolar lavage; pSmad2/Smad2 - ratio of phosphorylated Smad2 to total Smad2; QD - once daily.

[7] = tested on: normal human bronchial epithelial cells; assay: LAP adhesion assay (xCELLigence cell index), bronchial epithelial cells; type: cell-based; conditions: normal bronchial epithelial cells (express αvβ6)
Description: Two latency associated peptide (LAP) adhesion binding assays were devised using primary human lung cells, including normal (healthy) human bronchial epithelial cells and human lung fibroblasts (healthy and IPF).
Human bronchial epithelial cells are known to express αvβ6 integrin in culture.

lung Col1a1 expression = assay: Precision cut lung slices from human IPF explants, 3 days; type: cell-based; conditions: 3G9 ≥400 ng/mL, compound 5 179 nM, ALK5 inhibitor 1 µM
Description: Explanted lung tissue was obtained from human IPF subjects and inflated with agarose as described in the preceding examples. Biopsy cores were obtained from the agarose-inflated lung tissue. The biopsy cores were subjected to precision slicing to obtain several hundred µm thick. Individual slices were distributed in a multiwell culture plate and cultured for 3 days under control (DMSO) and test compound conditions. The viability of the slices over the course of culturing was confirmed by WST-1 assay of mitochondrial activity.

COCCN(CCCCc1ccc2c(n1)NCCC2)CC[C@H](Nc1ncnc2ccccc12)C(=O)O [Compound 5, (S)-4-((2-methoxyethyl)(4-(5,6,7,8-tetrahydro-1,8-naphthyridin-2-yl)butyl)amino)-2-(quinazolin-4-ylamino)butanoic acid]
concentration at 4 h ([1]; 60 mg, Subject A00, 60 mg single dose): 3.66 nM
concentration at 4 h ([1]; 120 mg, Subject B120, 120 mg): 10 nM
concentration at 4 h ([1]; 240 mg, Subject B240, 240 mg): 58.3 nM
concentration at 4 h ([1]; 240 mg, Subject C240, 240 mg): 103 nM
concentration at 4 h ([1]; 320 mg, Subject D320, 320 mg): 33.6 nM
concentration at 4 h ([1]; Subject C320, 320 mg): 96.5 nM
SMAD3 phosphorylation (pSMAD3/SMAD3) in cells isolated from BALF, % of the untreated levels (SMAD3 phosphorylation [2]): approximately 50%
SMAD3 phosphorylation (pSMAD3/SMAD3) in lung tissue, % of the untreated levels (SMAD3 phosphorylation [2]): approximately 50%
dose proportionality of plasma concentrations ([3]; 40, 80, 160 mg once daily): generally dose proportional increases; also recorded: increased approximately proportionally with dose
fraction unbound ([3]; human, in vivo): 0.003 to 0.005
discontinuations due to adverse events ([4]; 12 weeks): no discontinuations due to adverse events
severity of most treatment emergent adverse events (TEAE) ([4]; 12 weeks): mild or moderate
treatment related deaths or drug related serious adverse events (SAE) ([4]; 12 weeks): No treatment related deaths or drug related serious adverse events; also recorded: No treatment related SAEs or deaths
patients completing 12 weeks of treatment (65 of 67) ([4]; 40, 80, 160 mg once daily): 97%
tolerability ([4]; 40, 80, 160 mg once daily, 12 weeks): safe and well tolerated
serious adverse events ([4]; Compound 5 alone): did not result in serious adverse events
accumulated new collagen (% of lung collagen containing 2H-labeled hydroxyproline) ([5]; 1x and 5x dose PO BID 14 days): dose-dependent reduction
percent total collagen area in second harmonic generation lung images ([5]; 1x, 2.5x, 5x dose): substantial, statistically significant dose-dependent reduction
total pulmonary collagen (µg of hydroxyproline) ([5]; 1x, 2.5x, 5x dose PO BID 14 days): reduction in total pulmonary collagen
pSMAD3 levels in the lung, % of the untreated levels (SMAD3 phosphorylation [6]): approximately 50%
SMAD3 phosphorylation in lung tissue vs vehicle (SMAD3 phosphorylation [6]; 1x, 2.5x, 5x dose PO BID 14 days from day 7): substantial, statistically significant dose-dependent reductions
percent change of alveolar pSmad2/Smad2 from baseline at 24 hours vs placebo (pSmad2/Smad2): statistically significant
inhibition of cell adhesion to LAP [7]: substantially inhibited
lung Col1a1 expression vs DMSO control (lung Col1a1 expression): substantial, statistically significant
